System: MAP-induced hyperlocomotion in male ICR mice
Experiment: Inhibition of methamphetamine (MAP)-induced hyperlocomotion
Type: in vivo
Conditions: compound 10 mg/kg p.o. 60 min before MAP 2 mg/kg s.c., FIG. 1
Procedure: Male ICR mice were supplied by CLEA Japan, Inc (Japan). After arrival to the vivarium, animals were allowed a minimum of 1 week for acclimation. They were housed under a 12:12-h light/dark cycle in a temperature- and humidity-controlled laboratory and allowed food and water ad libitum.
A test compound was suspended in 0.5% methylcellulose in distilled water and orally administered (p.o.). Methamphetamine (Dainippon Sumitomo Pharma Co., Ltd.) was dissolved in saline and subcutaneously administered (s.c.). All drugs were dosed in a volume of 10 mL/kg body weight for mice.
The widely used animal models of psychosis have been the measurement of the extent of hyperlocomotion induced by psychostimulants (e.g., amphetamine, cocaine, methamphetamine, MK-801 and phencyclidine) in rodents (Psychopharmacology 1999, vol. 145: 237-250). 4 compounds (A, B, C, D) were tested for its ability to antagonize MAP-induced hyperlocomotion in mice. Male ICR mice were habituated in the locomotor chambers with infrared sensors (BrainScienceldea Co., Ltd. Japan) to the experiment. After the habituation, animals were treated with either vehicle or the compounds (10 mg/kg, p.o.), and MAP (2 mg/kg, s.c.) was administrated 60 min later. Locomotion activities were measured, and accumulated counts (120 min after administration of MAP) were calculated in each treatment group. All data were represented as means plus the standard errors of the means (n=3-9) and analyzed using Student's t-test with significance set at **P<0.01 and ***P<0.001 or Welch's t-test with significance set at ^$P<0.05, ^$$P<0.01 and ^$$$P<0.001.

Row | SMILES | inhibition of MAP-induced hyperlocomotion (accumulated locomotion counts 0-120 min)
1 | O=S1(=O)CCN2C=CC=C(c3ccc(Oc4ccccc4)cc3)C2=N1 [A, 9-(4-phenoxyphenyl)-3,4-dihydropyrido[2,1-c][1,2,4]thiadiazine 2,2-dioxide] | significant inhibition
2 | Cc1ccc(Oc2ccc(C3=CC=CN4CCS(=O)(=O)N=C34)cc2)cc1 [B, 9-[4-(4-methylphenoxy)phenyl]-3,4-dihydropyrido[2,1-c][1,2,4]thiadiazine 2,2-dioxide] | significant inhibition
3 | CC1=CN2CCS(=O)(=O)N=C2C(c2ccc(OC3CCCCC3)cc2)=N1 [C, 9-[4-(cyclohexyloxy)phenyl]-7-methyl-3,4-dihydropyrazino[2,1-c][1,2,4]thiadiazine 2,2-dioxide] | significant inhibition
4 | O=S1(=O)CCN2C=CC=C(c3ccc(OC4CCCCC4)cc3)C2=N1 [D, 9-[4-(cyclohexyloxy)phenyl]-3,4-dihydropyrido[2,1-c][1,2,4]thiadiazine 2,2-dioxide] | significant inhibition

From US9499568B2, “Heterocyclic compound and use thereof” (Takeda Pharmaceutical Company Limited, priority 2010, dated 2016)
